Experimental data published in publication PMC11093982, “Structural and mechanistic insights into Quinolone Synthase to address its functional promiscuity” (Communications Biology, 2024).
pKd: −log10 of the molar value. Where two headings read alike, the source gives them in different places.

Target: AmQNS (quinolone synthase) (Aegle marmelos, UniProt M1HE54)
Experiment: Surface plasmon resonance (SPR) AmQNS-substrate interaction studies
Type: binding
Conditions: for association rate constant (kon): SPR association rate; for dissociation rate constant (koff): SPR dissociation rate
Excerpt: ProteOn XPR array system[21] and ‘GLM’ sensor chip was used for the SPR interaction studies. […] Here, amine coupling works, where the amine groups present in the AmQNS covalently bind to the chemically activated carboxyl groups of the dextran molecules. Channel L3 and L4 were used for immobilization of protein while L2 was used as reference. The extent of non-specific interactions was eliminated or reduced by optimizing the buffer conditions. […] N-methylanthraniloyl-CoA was purchased from TransMIT (Plant MetaChem, www.plantmetachem.com), whereas all other substrates were purchased from Sigma-Aldrich (www.sigmaaldrich.com).
Following AmQNS immobilization and its stability screening, all binding studies were done at 30 °C. The SPR-based system measures the changes in refractive index to investigate the direct interaction between AmQNS and different CoA substrates. […] In our experiments, AmQNS was captured on the surface of the GLM sensor chip and used to screen the preferred substrates (acyl-CoA’s) in the presence and absence of malonyl-CoA. […] The sensogram was prepared by processing the data (after subtraction of L2 responses (reference channel). Baseline drift due to the bulk refractive index change, non-specific binding, matrix effects and injection noise were also corrected using the reference spots. Further, the responses obtained from the AmQNS-small molecular interactions at different concentrations were fitted using the Langmuir 1:1 biomolecular interaction model using the ProteOn Manager software version 3.1.0.6 (Bio-Rad, USA). Equilibrium dissociation constants (KD) were calculated from the ratio of the association and dissociation rates.

[1] = AmQNS immobilized on GLM chip, 30 °C, Langmuir 1:1 model
[2] = SPR, AmQNS immobilized on GLM chip, 30 °C, Langmuir 1:1 model, read-out: KD (KD= kd /ka)
[3] = SPR, AmQNS immobilized on GLM chip, 30 °C, in presence of malonyl-CoA, Langmuir 1:1 model, read-out: KD

Sequence of AmQNS (quinolone synthase) (M1HE54 entry or part of it): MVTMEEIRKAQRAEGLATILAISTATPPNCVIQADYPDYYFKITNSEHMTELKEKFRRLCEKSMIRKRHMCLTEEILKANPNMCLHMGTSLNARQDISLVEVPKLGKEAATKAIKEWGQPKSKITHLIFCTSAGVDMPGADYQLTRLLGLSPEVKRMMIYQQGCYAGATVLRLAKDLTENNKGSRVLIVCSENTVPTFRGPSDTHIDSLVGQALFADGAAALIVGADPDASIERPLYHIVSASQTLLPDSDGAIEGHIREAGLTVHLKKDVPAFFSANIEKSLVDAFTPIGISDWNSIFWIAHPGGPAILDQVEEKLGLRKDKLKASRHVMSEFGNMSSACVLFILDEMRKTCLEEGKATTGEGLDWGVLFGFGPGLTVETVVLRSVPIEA

| Compound | association rate constant (kon) [1] [M⁻¹ s⁻¹] | dissociation rate constant (koff) [1] [s⁻¹] | pKd [2] | pKd [3] | pKd |
| --- | --- | --- | --- | --- | --- |
| CCCCCCCCCCCCCC(=O)SCCNC(=O)CCNC(=O)[C@H](O)C(C)(C)COP(=O)(O)OP(=O)(O)OC[C@H]1O[C@@H](n2cnc3c(N)ncnc32)[C@H](O)[C@@H]1OP(=O)(O)O [Myristoyl-CoA] | 13000 | 0.00404 | – | – | – |
| CC(C)(COP(=O)(O)OP(=O)(O)OC[C@H]1O[C@@H](n2cnc3c(N)ncnc32)[C@H](O)[C@@H]1OP(=O)(O)O)[C@@H](O)C(=O)NCCC(=O)NCCSC(=O)/C=C/c1ccc(O)cc1 [p-coumaroyl CoA] | 591000 | 0.0595 | 7.00 | – | – |
| CCCCCCCCCCCCCCCCCC(=O)SCCNC(=O)CCNC(=O)[C@H](O)C(C)(C)COP(=O)(O)OP(=O)(O)OC[C@H]1O[C@@H](n2cnc3c(N)ncnc32)[C@H](O)[C@@H]1OP(=O)(O)O [Stearoyl-CoA] | 11700 | 0.00193 | 6.79 | – | – |
| CNc1ccccc1C(=O)SCCNC(=O)CCNC(=O)[C@H](O)C(C)(C)COP(=O)(O)OP(=O)(O)OC[C@H]1O[C@@H](n2cnc3c(N)ncnc32)[C@H](O)[C@@H]1OP(=O)(O)O [N-methylanthraniloyl-CoA] | 1e+08 | 0.204 | – | 8.69 | – |
| COc1cc(/C=C/C(=O)SCCNC(=O)CCNC(=O)[C@H](O)C(C)(C)COP(=O)(O)OP(=O)(O)OC[C@H]2O[C@@H](n3cnc4c(N)ncnc43)[C@H](O)[C@@H]2OP(=O)(O)O)ccc1O [Feruloyl-CoA] | 1e+08 | 0.983 | – | 8.01 | – |
| CCCCCC(=O)SCCNC(=O)CCNC(=O)[C@H](O)C(C)(C)COP(=O)(O)OP(=O)(O)OC[C@H]1O[C@@H](n2cnc3c(N)ncnc32)[C@H](O)[C@@H]1OP(=O)(O)O [Hexanoyl-CoA] | 963000 | 0.00703 | – | 8.14 | – |
| CC(C)(COP(=O)(O)OP(=O)(O)OC[C@H]1O[C@@H](n2cnc3c(N)ncnc32)[C@H](O)[C@@H]1OP(=O)(O)O)[C@@H](O)C(=O)NCCC(=O)NCCSC(=O)c1ccccc1 [Benzoyl-CoA] | 9510 | 0.0267 | 5.55 | – | – |
| CCCC(=O)SCCNC(=O)CCNC(=O)[C@H](O)C(C)(C)COP(=O)(O)OP(=O)(O)OC[C@H]1O[C@@H](n2cnc3c(N)ncnc32)[C@H](O)[C@@H]1OP(=O)(O)O [Butyryl-CoA] | 36100 | 0.0495 | – | – | 5.86 |
| COc1cc(/C=C/C(=O)SCCNC(=O)CCNC(=O)[C@H](O)C(C)(C)COP(=O)(O)OP(=O)(O)OC[C@H]2O[C@@H](n3cnc4c(N)ncnc43)[C@H](O)[C@@H]2OP(=O)(O)O)cc(OC)c1O [Sinapoyl-CoA] | 141000 | 0.0163 | 6.94 | – | – |
| CC(C)(COP(=O)(O)OP(=O)(O)OC[C@H]1O[C@@H](n2cnc3c(N)ncnc32)[C@H](O)[C@@H]1OP(=O)(O)O)[C@@H](O)C(=O)NCCC(=O)NCCSC(=O)CC(=O)O [Malonyl-CoA] | 78200 | 0.0134 | 6.76 | – | – |
| CCCCCCCCCCCCCCCC(=O)SCCNC(=O)CCNC(=O)[C@H](O)C(C)(C)COP(=O)(O)OP(=O)(O)OC[C@H]1O[C@@H](n2cnc3c(N)ncnc32)[C@H](O)[C@@H]1OP(=O)(O)O [Palmitoyl-CoA] | 45800 | 0.00417 | 7.04 | – | – |
